How the values were obtained:
[1] = DRUGMATRIX: Glutamate, NMDA, Phencyclidine radioligand binding (ligand: [3H] TCP); assay type: cell membranes, Rattus norvegicus, Wistar, Cerebral cortex, Membrane; conditions: Not Active = under 50% inhibition at 10 µM
[2] = DRUGMATRIX: Sigma2 radioligand binding (ligand: [3H] Ifenprodil); assay type: cell membranes, Rattus norvegicus, Wistar, Brain, Membrane; conditions: Not Active = under 50% inhibition at 10 µM
Vasopressin V1a receptor = Vasopressin V1a receptor (Homo sapiens, UniProt P37288); assay type: cell membranes, Membrane; conditions: hek293; also: in other assays of this panel Not Active means under 50% inhibition at 10 µM
Sequence of Vasopressin V1a receptor (P37288 whole entry): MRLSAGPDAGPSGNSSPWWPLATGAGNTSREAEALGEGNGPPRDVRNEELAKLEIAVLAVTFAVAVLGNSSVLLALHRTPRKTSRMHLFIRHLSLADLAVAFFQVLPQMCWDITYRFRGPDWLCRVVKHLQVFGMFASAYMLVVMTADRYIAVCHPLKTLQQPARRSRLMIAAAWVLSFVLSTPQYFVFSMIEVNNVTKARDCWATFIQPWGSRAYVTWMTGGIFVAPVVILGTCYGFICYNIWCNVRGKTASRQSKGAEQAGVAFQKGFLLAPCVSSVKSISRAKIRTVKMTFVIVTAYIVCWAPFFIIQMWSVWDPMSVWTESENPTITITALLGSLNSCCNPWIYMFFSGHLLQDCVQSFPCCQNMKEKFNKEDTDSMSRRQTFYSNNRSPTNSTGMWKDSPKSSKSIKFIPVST

[3] = DRUGMATRIX: Sodium/nucleoside co-transporter radioligand binding (ligand: nitrobenzylthioinosine); assay type: cell membranes, Cavia porcellus, Dunkin-Hartley, Cerebral cortex, Membrane; conditions: Not Active = under 50% inhibition at 10 µM
[4] = DRUGMATRIX: Platelet-Derived Growth Factor (PDGF) radioligand binding (ligand: [125I] PDGF); assay type: cell-based; conditions: nih3t3; Not Active = under 50% inhibition at 10 µM
Substance-P receptor = Substance-P receptor (Homo sapiens, UniProt P25103); assay type: cell membranes, Membrane; conditions: cho; also: in other assays of this panel Not Active means under 50% inhibition at 10 µM
Sequence of Substance-P receptor (P25103 whole entry): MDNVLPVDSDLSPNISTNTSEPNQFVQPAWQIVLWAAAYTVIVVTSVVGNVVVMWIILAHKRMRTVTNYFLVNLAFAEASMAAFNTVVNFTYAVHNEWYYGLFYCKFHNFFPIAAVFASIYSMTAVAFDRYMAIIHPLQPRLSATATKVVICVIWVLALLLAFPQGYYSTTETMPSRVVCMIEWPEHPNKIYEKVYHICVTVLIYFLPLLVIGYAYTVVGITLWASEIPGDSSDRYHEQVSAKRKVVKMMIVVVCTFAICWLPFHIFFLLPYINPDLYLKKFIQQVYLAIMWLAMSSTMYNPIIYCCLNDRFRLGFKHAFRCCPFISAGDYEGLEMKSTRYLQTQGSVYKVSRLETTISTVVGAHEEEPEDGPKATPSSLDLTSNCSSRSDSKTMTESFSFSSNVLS

Cytochrome P450 1A2 = biological target: T1, Cytochrome P450 1A2 (Homo sapiens, UniProt P05177); conditions: bti-tn-5b1-4; also: in other assays of this panel Not Active means under 50% inhibition at 10 µM
T1 sequence (P05177 whole entry): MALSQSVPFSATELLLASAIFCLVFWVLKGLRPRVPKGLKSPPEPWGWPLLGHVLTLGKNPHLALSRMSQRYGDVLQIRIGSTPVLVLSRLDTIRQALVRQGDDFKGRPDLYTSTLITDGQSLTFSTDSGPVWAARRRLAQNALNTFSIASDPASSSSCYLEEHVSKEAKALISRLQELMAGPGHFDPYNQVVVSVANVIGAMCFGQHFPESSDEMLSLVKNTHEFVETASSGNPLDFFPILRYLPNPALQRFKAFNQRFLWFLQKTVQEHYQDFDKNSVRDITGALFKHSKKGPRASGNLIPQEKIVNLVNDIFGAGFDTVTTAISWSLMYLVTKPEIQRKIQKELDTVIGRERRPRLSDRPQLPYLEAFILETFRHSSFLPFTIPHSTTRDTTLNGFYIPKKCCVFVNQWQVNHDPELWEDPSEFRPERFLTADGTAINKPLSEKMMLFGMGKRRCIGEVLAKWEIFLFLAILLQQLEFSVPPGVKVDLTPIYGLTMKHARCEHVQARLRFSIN

[5] = biological target: Mitogen-activated protein kinase 14 (Homo sapiens, UniProt Q16539); design: species or system Escherichia coli;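 also: inhibition of p38alpha enzyme activity in a biochemical kinase assay, with myelin basic protein serving as substrate; in other assays of this panel Not Active means under 50% inhibition at 10 µM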
Sequence of Mitogen-activated protein kinase 14 (Q16539 whole entry): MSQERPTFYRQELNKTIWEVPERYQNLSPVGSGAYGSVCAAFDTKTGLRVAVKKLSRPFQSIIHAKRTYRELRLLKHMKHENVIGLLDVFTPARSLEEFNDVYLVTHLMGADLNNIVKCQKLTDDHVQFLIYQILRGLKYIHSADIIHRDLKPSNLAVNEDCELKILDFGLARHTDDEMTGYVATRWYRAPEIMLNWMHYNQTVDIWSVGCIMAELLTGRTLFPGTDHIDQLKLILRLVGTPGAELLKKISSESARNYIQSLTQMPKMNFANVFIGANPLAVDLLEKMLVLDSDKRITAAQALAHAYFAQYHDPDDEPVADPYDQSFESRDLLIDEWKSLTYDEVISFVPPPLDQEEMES

COc1cc(N)nc2[nH]c(-c3ccc(F)cc3)c(-c3ccncc3)c12
Not Active: IC50 [1] | Ki [1] | IC50 [2] | Ki [2] | IC50 (Vasopressin V1a receptor) | IC50 [3] | Ki [3] | IC50 [4] | Ki [4] | IC50 (Substance-P receptor) | IC50 (Cytochrome P450 1A2) | Ki (Cytochrome P450 1A2)

CNS(=O)(=O)Cc1ccc2[nH]cc(CCN(C)C)c2c1
Not Active: IC50 [5] | IC50 [1] | Ki [1] | IC50 [2] | Ki [2] | IC50 (Vasopressin V1a receptor) | IC50 [3] | Ki [3] | IC50 [4] | Ki [4] | IC50 (Substance-P receptor) | IC50 (Cytochrome P450 1A2) | Ki (Cytochrome P450 1A2)

CCCc1nn(C)c2c(=O)[nH]c(-c3cc(S(=O)(=O)N4CCN(C)CC4)ccc3OCC)nc12
Not Active: IC50 [5] | IC50 [1] | Ki [1] | IC50 [2] | Ki [2] | IC50 (Vasopressin V1a receptor) | IC50 [3] | Ki [3] | IC50 [4] | Ki [4] | IC50 (Substance-P receptor) | IC50 (Cytochrome P450 1A2) | Ki (Cytochrome P450 1A2)

COc1ccc(/C=C/C(=O)Nc2ccccc2C(=O)O)cc1OC
Not Active: IC50 [5] | IC50 [1] | Ki [1] | IC50 [2] | Ki [2] | IC50 (Vasopressin V1a receptor) | IC50 [3] | Ki [3] | IC50 [4] | Ki [4] | IC50 (Substance-P receptor) | IC50 (Cytochrome P450 1A2) | Ki (Cytochrome P450 1A2)

CCOC(N)=O
Not Active: IC50 [5] | IC50 [1] | Ki [1] | IC50 [2] | Ki [2] | IC50 (Vasopressin V1a receptor) | IC50 [3] | Ki [3] | IC50 [4] | Ki [4] | IC50 (Substance-P receptor) | IC50 (Cytochrome P450 1A2) | Ki (Cytochrome P450 1A2)

CC(=O)Nc1nnc(S(N)(=O)=O)s1 [ACETAZOLAMIDE]
Not Active: IC50 [5] | IC50 (Vasopressin V1a receptor) | IC50 (Substance-P receptor) | IC50 (Cytochrome P450 1A2) | Ki (Cytochrome P450 1A2)

O=c1[nH]c2ccccc2n1CCCN1CCC(n2c(=O)[nH]c3cc(Cl)ccc32)CC1 [DOMPERIDONE]
Not Active: IC50 [5] | IC50 (Vasopressin V1a receptor) | IC50 (Substance-P receptor)

CC1=C(CC(=O)O)c2cc(F)ccc2/C1=C\c1ccc(S(C)(=O)=O)cc1 [EXISULIND]
Not Active: IC50 [5] | IC50 [1] | Ki [1] | IC50 [2] | Ki [2] | IC50 (Vasopressin V1a receptor) | IC50 [3] | Ki [3] | IC50 [4] | Ki [4] | IC50 (Substance-P receptor) | IC50 (Cytochrome P450 1A2) | Ki (Cytochrome P450 1A2)

CC(C)OC(=O)C(C)(C)Oc1ccc(C(=O)c2ccc(Cl)cc2)cc1 [FENOFIBRATE]
Not Active: IC50 [5] | IC50 (Vasopressin V1a receptor) | IC50 (Substance-P receptor) | IC50 (Cytochrome P450 1A2) | Ki (Cytochrome P450 1A2)

OCCN1CCN(CCCN2c3ccccc3Sc3ccc(C(F)(F)F)cc32)CC1 [FLUPHENAZINE]
Not Active: IC50 [5] | IC50 (Vasopressin V1a receptor) | IC50 (Substance-P receptor)

CN1C2CCCC1CC(NC(=O)c1nn(C)c3ccccc13)C2 (stereo unspecified) [GRANISETRON]
Not Active: IC50 [5] | IC50 (Vasopressin V1a receptor) | IC50 (Substance-P receptor) | IC50 (Cytochrome P450 1A2) | Ki (Cytochrome P450 1A2)

Nc1nc2c(c(=O)[nH]1)N(C=O)C(CNc1ccc(C(=O)N[C@@H](CCC(=O)O)C(=O)O)cc1)CN2 (stereo partly specified) [LEUCOVORIN]
Not Active: IC50 [5] | IC50 [1] | Ki [1] | IC50 [2] | Ki [2] | IC50 (Vasopressin V1a receptor) | IC50 [3] | Ki [3] | IC50 [4] | Ki [4] | IC50 (Substance-P receptor) | IC50 (Cytochrome P450 1A2) | Ki (Cytochrome P450 1A2)

— ChEMBL document CHEMBL1909046, “DrugMatrix in vitro pharmacology data”
